From patent US10849322B2, “Use of hibiscus acid and derivatives thereof as antimicrobials against antibiotic-resistant and non-antibiotic-resistant microorganisms” (UNIVERSIDAD AUTONOMA DEL ESTADO DE HIDALGO, priority 2015, dated 2020) come the findings set out here.

One experiment concerns E coli O157H7. The experiment can be described thus: Disc diffusion, zones of inhibition in culture medium. It counts as cell-based, Escherichia coli. The settings on record: A = E coli O157H7, average of four repetitions. Here is the method:
(§1) […]. Select mutants resistant to the antibiotic rifampicin (R+) to eliminate the interference of the native microbial flora of Hibiscus acid and derivatives (Castro-Rosas and Escartín, 2000). Maintain the R+ strains at 4-7° C. on blood-based agar (ABS, Merck®, Germany) with biweekly transfers, activating tripticasein soy broth (CST, Bioxon®, Mexico) with incubation at 35° C./24 h.
(§2) Prepare cultures of each one of the R+ study bacteria in tubes of 13×100 mm containing 3 ml of Tripticasein Soy Broth (TSB) incubating at 35° C. for 24 hours. Subsequently, centrifuge the cultures at 3500 rpm for 20 minutes. Then discard the supernatant and resuspend the cell pack by adding 3 ml of sterile isotonic saline solution (ISS) and agitate in vortex for 10 seconds. Repeat the previous procedure two more times. Subsequently, dilute each culture of the washed strains in a decimal proportion with ISS.
(§3) From the dry fractions (collections) prepare aqueous solutions using a solution of Polysorbate 80:water that was previously prepared in a ratio of 20:80. To this solution of polysorbate 80:water, add each dry fraction or chromatographic collection separately in a 1:9 ratio, in clean jars.
(§4) Separately, place 100 μL of the first dilution of the washed and diluted cultures on boxes of Agar Soya Tripticasa (AST) supplemented with 100 mg/L of the antibiotic rifampin; distribute the inoculum over the entire surface of the agar using the surface extension technique. Place on the inoculated boxes, separately, filter paper discs of a size of 0.5 cm and on the disks place aliquots of 10 μL of the solution of the chromatographic fractions. Perform four repetitions for each treatment. After the aliquots of the fractions or collections are absorbed by the agar, incubate the culture boxes at 35° C. for 24 hours.

A further experiment relates to E. coli enteroinvasive. The experiment is described as above. The experiment is classed as cell-based, Escherichia coli. Conditions: B = E. coli enteroinvasive, average of four repetitions. On the procedure:
as §1, §2, §3, §4

For the next experiment, the system named is E. coli enteropathogenic. The description is as above. The settings on record: D = E. coli enteropathogenic, average of four repetitions. The experiment is classed as cell-based, Escherichia coli. Here is the method:
as §1, §2, §3, §4

Another experiment relates to E. coli enterotoxigenic. The experiment is described as above. It counts as cell-based, Escherichia coli. Conditions: C = E. coli enterotoxigenic, average of four repetitions. Here is the method:
as §1, §2, §3, §4

The subject of another experiment is L. monocytogenes scott A. The experiment is described as above. It counts as cell-based, Listeria monocytogenes. The settings on record: J = L. monocytogenes scott A, average of four repetitions. On the procedure: as §1, §2, §3, §4
The next experiment relates to Listeria monocytogenes. Described as above. Conditions: I = Listeria monocytogenes, average of four repetitions. It counts as cell-based. Here is the method:
as §1, §2, §3, §4

In a further experiment the test system is Pseudomonas aeruginosa. The description is as above. The settings on record: column L, average of four repetitions. The experiment is classed as cell-based. Here is the method: as §1, §2, §3, §4
The test system of experiment [1] is Salmonella Typhimurium R+. The description is as above. The settings on record: E = Salmonella Typhimurium R+ (resistant to 14 antibiotics), average of four repetitions. The experiment is classed as cell-based. On the procedure:
as §1, §2, §3, §4

For the next experiment, the system named is Salmonella choleraesuis. The experiment is described as above. It counts as cell-based. The settings on record: column F, average of four repetitions. On the procedure:
as §1, §2, §3, §4

Another experiment relates to Shigella flexneri. Described as above. It counts as cell-based. The settings on record: H = Shigella flexneri, average of four repetitions. On the procedure:
as §1, §2, §3, §4

The next experiment relates to Shigella sonnei. The experiment is described as above. It counts as cell-based. Conditions: G = Shigella sonnei, average of four repetitions. On the procedure: as §1, §2, §3, §4
In the next experiment the test system is Staphylococcus aureus. The description is as above. It counts as cell-based. Conditions: K = Staphylococcus aureus, average of four repetitions. On the procedure: as §1, §2, §3, §4
The test system of another experiment is V. cholerae O1. The description is as above. The experiment is classed as cell-based. The settings on record: M = V. cholerae O1, average of four repetitions. Here is the method: as §1, §2, §3, §4
Experiment [2] concerns 13 different microorganisms. Description: Antimicrobial effect in culture medium, whole panel. It counts as cell-based. The settings on record: against the control; all study microorganisms. Here is the method: as §1, §2
From the dry fractions (collections) prepare aqueous solutions using a solution of Polysorbate 80:water that was previously prepared in a ratio of 20:80. To this solution of polysorbate 80:water, add each dry fraction or chromatographic collection separately in a 1:9 ratio, in clean jars. […]

As for `CCOC(=O)[C@H]1OC(=O)C[C@]1(O)C(=O)OCC` [Compound 5, di-ester ethyl of hibiscus acid], the Zones of inhibition in the experiment on E coli O157H7, in the experiment with E. coli enteroinvasive, in the experiment on E. coli enteropathogenic, with E. coli enterotoxigenic, with L. monocytogenes scott A and with Listeria monocytogenes was 6 mm each time. Besides, the Zones of inhibition (in the experiment with Pseudomonas aeruginosa; in experiment [1]; with Salmonella choleraesuis; in the experiment on Shigella flexneri; in the experiment with Shigella sonnei; with Staphylococcus aureus) was 6 mm each time. In the experiment on V. cholerae O1, this molecule yielded a Zones of inhibition of 8 mm.
With `O=C1C[C@](O)(C(=O)O)[C@@H](C(=O)O)O1` [Compound 1, hibiscus acid], the Zones of inhibition with E coli O157H7 is on record as 10 mm; in the experiment with E. coli enteroinvasive it was 12 mm; in the experiment on E. coli enteropathogenic, 11 mm; in the experiment on E. coli enterotoxigenic, 10 mm; with L. monocytogenes scott A, 10 mm; with Listeria monocytogenes it was 10 mm. Besides, the Zones of inhibition is reported as 10 mm in the experiment with Pseudomonas aeruginosa; 12 mm in experiment [1]; 10 mm in the experiment with Salmonella choleraesuis; 10 mm in the experiment on Shigella flexneri; 10 mm in the experiment with Shigella sonnei; 10 mm in the experiment on Staphylococcus aureus. The same molecule yielded a Zones of inhibition in the experiment on V. cholerae O1 of 14 mm. For the same molecule, the “antimicrobial effect (zone of inhibition, in words)” value in experiment [2] was “maximum zone of inhibition”.
As for `CCOC(=O)C[C@](O)(C(=O)OCC)[C@@H](O)C(=O)OCC` [Compound 6, tri-ethyl ester of hydroxycitric acid], the Zones of inhibition in the experiment on E coli O157H7, in the experiment with E. coli enteroinvasive, in the experiment on E. coli enteropathogenic, with E. coli enterotoxigenic, in the experiment with L. monocytogenes scott A and in the experiment on Listeria monocytogenes was 5 mm each time. The Zones of inhibition (in the experiment with Pseudomonas aeruginosa; in experiment [1]; in the experiment with Salmonella choleraesuis; in the experiment on Shigella flexneri; with Shigella sonnei; in the experiment on Staphylococcus aureus) was 5 mm throughout. Further, the Zones of inhibition in the experiment with V. cholerae O1 is recorded as 6 mm. Also, in [2], the “antimicrobial effect (zone of inhibition, in words)” value was “lowest”.
`CCOC(=O)[C@@]1(O)CC(=O)O[C@@H]1C(=O)O` [Compound 4, mono ester ethyl of hibiscus acid]: the Zones of inhibition in the experiment with E coli O157H7, in the experiment with E. coli enteroinvasive, in the experiment on E. coli enteropathogenic, with E. coli enterotoxigenic, with L. monocytogenes scott A and in the experiment with Listeria monocytogenes was 6 mm throughout. Moreover, the Zones of inhibition (in the experiment with Pseudomonas aeruginosa; in experiment [1]; in the experiment with Salmonella choleraesuis; with Shigella flexneri; in the experiment on Shigella sonnei; with Staphylococcus aureus) was 6 mm throughout. For the same molecule, in the experiment on V. cholerae O1, the Zones of inhibition worked out at 8 mm.
`COC(=O)[C@@]1(O)CC(=O)O[C@@H]1C(=O)O` [Compound 2, mono ester methyl of hibiscus acid]: the Zones of inhibition in the experiment on E coli O157H7 is reported as 10 mm; in the experiment with E. coli enteroinvasive it was 10 mm; in the experiment with E. coli enteropathogenic it was 10 mm; in the experiment with E. coli enterotoxigenic, 10 mm; in the experiment on L. monocytogenes scott A it was 8 mm; in the experiment with Listeria monocytogenes, 8 mm. The Zones of inhibition was found to be 8 mm with Pseudomonas aeruginosa; 10 mm in experiment [1]; 10 mm in the experiment with Salmonella choleraesuis; 10 mm in the experiment with Shigella flexneri; 10 mm in the experiment on Shigella sonnei; 10 mm with Staphylococcus aureus. Further, in the experiment with V. cholerae O1, the Zones of inhibition was 12 mm.
Take `COC(=O)[C@H]1OC(=O)C[C@]1(O)C(=O)OC` [Compound 3, di-ester methyl of hibiscus acid]: the Zones of inhibition in the experiment on E coli O157H7, in the experiment with E. coli enteroinvasive, with E. coli enteropathogenic, in the experiment with E. coli enterotoxigenic, in the experiment with L. monocytogenes scott A and in the experiment on Listeria monocytogenes was 8 mm throughout. The Zones of inhibition (with Pseudomonas aeruginosa; in experiment [1]; with Salmonella choleraesuis; with Shigella flexneri; in the experiment with Shigella sonnei; with Staphylococcus aureus) was 8 mm throughout. In the experiment on V. cholerae O1, this molecule gave a Zones of inhibition of 10 mm.
